In the Kinase Knowledgebase extract (Sharma et al. 2016):

Experiments:
PIK3CG (human) = PIK3CG (human) (UniProt P48736); experiment: Inhibition of PIK3CG Kinase Activity
PIK3CB (Human) = PIK3CB (Human) (UniProt P42338); experiment: Inhibition of PIK3CB Kinase Activity
PIK3CD (Human) [1] = target: PIK3CD (Human) (UniProt O00329); experiment: Assessment of Elastase Exocytosis From Neutrophils
PIK3CD (Human) [2] = target: PIK3CD (Human) (UniProt O00329); experiment: Assessment of Human B Lymphocyte Function; settings: b cells
PIK3CA (human) = PIK3CA (human) (UniProt P42336); experiment: Inhibition of PIK3CA Kinase Activity
PIK3CA (human), sequence (P42336 whole entry, looked up): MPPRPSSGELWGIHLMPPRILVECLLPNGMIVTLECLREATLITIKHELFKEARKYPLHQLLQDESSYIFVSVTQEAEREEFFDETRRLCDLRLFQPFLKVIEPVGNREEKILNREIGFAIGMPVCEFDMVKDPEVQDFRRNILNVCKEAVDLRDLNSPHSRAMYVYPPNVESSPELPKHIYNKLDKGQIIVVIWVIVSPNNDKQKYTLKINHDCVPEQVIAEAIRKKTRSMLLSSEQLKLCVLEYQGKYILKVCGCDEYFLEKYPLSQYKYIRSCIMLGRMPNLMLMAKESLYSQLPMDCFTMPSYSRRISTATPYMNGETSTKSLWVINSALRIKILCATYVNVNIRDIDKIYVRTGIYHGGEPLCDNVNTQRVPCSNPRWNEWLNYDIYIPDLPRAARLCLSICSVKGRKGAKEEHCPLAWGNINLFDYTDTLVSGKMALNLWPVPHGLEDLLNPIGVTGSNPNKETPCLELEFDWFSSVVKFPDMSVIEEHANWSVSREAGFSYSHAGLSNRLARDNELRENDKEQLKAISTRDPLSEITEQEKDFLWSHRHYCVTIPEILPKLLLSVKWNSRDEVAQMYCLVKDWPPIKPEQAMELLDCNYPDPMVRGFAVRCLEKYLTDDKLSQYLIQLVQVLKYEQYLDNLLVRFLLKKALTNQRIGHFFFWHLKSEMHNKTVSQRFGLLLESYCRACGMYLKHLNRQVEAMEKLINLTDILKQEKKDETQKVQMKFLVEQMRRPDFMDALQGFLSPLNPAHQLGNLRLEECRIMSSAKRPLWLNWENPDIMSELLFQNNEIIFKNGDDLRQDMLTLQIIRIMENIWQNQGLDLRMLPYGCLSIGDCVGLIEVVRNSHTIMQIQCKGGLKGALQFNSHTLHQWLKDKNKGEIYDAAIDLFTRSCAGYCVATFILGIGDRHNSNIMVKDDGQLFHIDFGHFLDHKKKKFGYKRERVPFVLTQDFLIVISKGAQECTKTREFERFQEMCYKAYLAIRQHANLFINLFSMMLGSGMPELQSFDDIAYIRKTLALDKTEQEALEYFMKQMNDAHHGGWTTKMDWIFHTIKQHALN

PIK3CD (Human), sequence (O00329 whole entry, looked up): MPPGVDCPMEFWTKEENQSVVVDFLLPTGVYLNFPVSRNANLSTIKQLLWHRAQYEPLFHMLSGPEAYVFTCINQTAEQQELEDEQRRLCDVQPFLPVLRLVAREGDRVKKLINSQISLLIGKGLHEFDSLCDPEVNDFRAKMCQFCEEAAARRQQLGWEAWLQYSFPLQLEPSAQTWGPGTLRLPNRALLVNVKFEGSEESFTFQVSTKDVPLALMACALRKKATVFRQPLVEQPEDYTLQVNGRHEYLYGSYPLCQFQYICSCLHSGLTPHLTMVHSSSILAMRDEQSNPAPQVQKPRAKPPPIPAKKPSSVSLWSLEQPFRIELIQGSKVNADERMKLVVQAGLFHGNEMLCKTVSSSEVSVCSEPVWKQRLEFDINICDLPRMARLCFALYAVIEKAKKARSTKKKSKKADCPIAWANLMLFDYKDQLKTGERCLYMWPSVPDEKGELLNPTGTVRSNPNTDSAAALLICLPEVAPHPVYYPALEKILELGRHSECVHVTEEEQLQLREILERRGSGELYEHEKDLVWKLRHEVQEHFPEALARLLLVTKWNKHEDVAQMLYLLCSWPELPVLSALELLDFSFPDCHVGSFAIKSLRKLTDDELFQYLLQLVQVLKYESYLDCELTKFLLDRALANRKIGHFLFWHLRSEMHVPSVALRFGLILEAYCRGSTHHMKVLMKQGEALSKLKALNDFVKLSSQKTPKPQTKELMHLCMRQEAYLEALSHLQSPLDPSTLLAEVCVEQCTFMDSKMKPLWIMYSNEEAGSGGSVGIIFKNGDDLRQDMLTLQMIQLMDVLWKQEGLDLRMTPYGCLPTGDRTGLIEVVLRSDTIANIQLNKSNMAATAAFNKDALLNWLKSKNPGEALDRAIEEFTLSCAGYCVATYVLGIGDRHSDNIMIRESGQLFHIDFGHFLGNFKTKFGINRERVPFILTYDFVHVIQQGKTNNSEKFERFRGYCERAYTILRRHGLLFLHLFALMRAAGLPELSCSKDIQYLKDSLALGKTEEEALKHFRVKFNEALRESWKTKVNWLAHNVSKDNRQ
PIK3CG (human), sequence (P48736 whole entry, looked up): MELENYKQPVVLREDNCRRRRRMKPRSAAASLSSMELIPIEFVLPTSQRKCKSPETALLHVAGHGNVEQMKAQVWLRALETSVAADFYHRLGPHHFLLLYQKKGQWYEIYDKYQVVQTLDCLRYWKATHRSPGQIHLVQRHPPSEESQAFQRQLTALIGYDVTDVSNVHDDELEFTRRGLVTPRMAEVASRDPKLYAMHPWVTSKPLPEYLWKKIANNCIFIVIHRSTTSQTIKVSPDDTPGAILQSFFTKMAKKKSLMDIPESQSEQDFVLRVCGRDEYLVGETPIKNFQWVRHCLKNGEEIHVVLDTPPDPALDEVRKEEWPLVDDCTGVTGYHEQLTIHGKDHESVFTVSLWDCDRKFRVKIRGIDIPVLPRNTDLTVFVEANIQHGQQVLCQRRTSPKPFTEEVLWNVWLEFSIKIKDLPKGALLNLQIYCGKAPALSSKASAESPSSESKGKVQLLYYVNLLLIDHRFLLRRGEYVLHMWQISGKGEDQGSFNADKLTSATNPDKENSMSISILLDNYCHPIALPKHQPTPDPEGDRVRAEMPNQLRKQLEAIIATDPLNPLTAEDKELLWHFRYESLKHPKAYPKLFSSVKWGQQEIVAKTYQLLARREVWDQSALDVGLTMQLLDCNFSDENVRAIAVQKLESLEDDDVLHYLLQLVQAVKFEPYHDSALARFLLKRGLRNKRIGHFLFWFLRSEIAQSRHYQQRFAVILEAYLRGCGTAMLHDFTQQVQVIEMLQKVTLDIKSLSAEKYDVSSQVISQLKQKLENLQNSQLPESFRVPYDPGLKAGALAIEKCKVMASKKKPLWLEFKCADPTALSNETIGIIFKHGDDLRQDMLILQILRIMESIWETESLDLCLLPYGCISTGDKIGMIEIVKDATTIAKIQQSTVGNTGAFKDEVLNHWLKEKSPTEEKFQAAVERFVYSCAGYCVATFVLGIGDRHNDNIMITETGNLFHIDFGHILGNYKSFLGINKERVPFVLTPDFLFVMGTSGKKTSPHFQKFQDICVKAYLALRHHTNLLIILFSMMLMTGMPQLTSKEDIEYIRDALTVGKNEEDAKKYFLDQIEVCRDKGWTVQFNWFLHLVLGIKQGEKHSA
PIK3CB (Human), sequence (P42338 whole entry, looked up): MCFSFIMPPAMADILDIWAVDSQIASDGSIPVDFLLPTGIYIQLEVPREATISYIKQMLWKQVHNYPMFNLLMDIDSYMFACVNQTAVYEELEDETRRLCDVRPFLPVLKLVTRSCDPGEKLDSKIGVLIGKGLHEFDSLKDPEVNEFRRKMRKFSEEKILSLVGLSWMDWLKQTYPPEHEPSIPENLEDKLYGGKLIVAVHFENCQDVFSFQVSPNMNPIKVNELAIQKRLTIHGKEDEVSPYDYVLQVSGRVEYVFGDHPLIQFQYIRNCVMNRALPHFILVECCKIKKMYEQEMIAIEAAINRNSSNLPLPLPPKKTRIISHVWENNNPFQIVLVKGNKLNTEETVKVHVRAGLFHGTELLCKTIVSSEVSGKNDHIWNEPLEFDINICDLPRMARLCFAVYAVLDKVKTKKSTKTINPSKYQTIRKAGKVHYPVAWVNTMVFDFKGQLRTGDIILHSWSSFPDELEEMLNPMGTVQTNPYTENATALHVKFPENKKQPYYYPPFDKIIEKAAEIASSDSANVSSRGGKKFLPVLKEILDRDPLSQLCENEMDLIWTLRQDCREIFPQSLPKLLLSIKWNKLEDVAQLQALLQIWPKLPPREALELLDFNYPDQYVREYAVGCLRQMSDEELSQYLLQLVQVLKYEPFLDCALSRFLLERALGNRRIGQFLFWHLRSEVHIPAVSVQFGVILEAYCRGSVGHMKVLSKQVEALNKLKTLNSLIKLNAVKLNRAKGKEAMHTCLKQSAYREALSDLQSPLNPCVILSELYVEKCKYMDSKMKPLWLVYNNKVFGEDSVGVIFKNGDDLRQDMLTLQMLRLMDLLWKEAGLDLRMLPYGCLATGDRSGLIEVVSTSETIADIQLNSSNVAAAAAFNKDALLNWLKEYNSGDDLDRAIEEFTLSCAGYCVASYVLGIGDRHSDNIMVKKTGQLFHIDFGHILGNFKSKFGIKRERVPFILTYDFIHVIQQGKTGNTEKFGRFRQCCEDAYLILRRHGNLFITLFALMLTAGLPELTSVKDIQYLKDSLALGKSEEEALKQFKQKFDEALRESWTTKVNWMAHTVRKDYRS

| Structure (SMILES) | IC50 (PIK3CG (human)) [µM] | IC50 (PIK3CB (Human)) [µM] | EC50 (PIK3CD (Human) [1]) [µM] | EC50 (PIK3CD (Human) [2]) [µM] | IC50 (PIK3CA (human)) [µM] |
| --- | --- | --- | --- | --- | --- |
| CCC(Nc1ncnc2[nH]cnc12)c1nc2ccccc2c(=O)n1-c1ccccc1 (centres undefined) | 1.06 | 1.18 | 0.084 | 0.0046 | 9.73 |
| CCC(Nc1ncnc2[nH]cnc12)c1nc2cccc(C)c2c(=O)n1-c1cc(F)cc(F)c1 (centres undefined) | 1.61 | 2.44 | 0.584 | – | 18.7 |
| CC[C@H](Nc1ncnc2[nH]cnc12)c1nc2cccc(Cl)c2c(=O)n1-c1cc(F)cc(F)c1 | 0.804 | 0.936 | 0.382 | 0.0016 | 7.94 |
| CCC(Nc1ncnc2[nH]cnc12)c1nc2cccc(Cl)c2c(=O)n1-c1c(F)cccc1F (centres undefined) | 1.71 | 3.24 | 0.298 | 0.0307 | 11.2 |
